Experimental data as given in US20110144159A1, “ETHER BENZYLIDENE PIPERIDINE ARYL CARBOXAMIDE COMPOUNDS USEFUL AS FAAH INHIBITORS” (Pfizer Inc, priority 2008, published 2011).

Biological target: T1, Human FAAH (Homo sapiens, UniProt O00519)
T1 construct: made in house
T1 sequence (O00519 32-579 limits assumed): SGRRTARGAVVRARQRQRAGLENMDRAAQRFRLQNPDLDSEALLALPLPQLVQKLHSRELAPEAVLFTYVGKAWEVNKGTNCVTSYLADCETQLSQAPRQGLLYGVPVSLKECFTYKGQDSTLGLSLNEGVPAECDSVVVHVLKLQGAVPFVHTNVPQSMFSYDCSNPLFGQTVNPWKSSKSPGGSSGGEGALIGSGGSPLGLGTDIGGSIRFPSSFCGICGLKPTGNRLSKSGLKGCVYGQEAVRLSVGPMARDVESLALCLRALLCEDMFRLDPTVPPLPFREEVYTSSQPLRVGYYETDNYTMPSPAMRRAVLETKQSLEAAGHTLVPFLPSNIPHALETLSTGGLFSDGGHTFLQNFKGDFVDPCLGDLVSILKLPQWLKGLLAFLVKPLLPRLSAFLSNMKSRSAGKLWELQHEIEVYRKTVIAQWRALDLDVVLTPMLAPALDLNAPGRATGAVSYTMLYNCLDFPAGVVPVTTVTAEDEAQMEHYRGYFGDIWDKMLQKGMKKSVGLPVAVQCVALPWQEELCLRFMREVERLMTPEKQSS
Test: FAAH assay (glutamate dehydrogenase-coupled, oleamide substrate, absorbance at 340 nm)
Format: biochemical
Conditions: irreversible inhibition potency
Experimental: A FAAH assay may be carried out in 384-well clear polystyrene plates in a total volume of 50 μl per well. All percents are by volume. To each well was placed the reaction mixture (40 μl) containing 1-4 nM FAAH, 50 mM NaPi, pH 7.4, 3 mM α-ketoglutarate, 0.15 mM NADH, 7.5 U/ml glutamate dehydrogenase, 2 mM ADP, 1 mM EDTA, and 0.1% Triton X-100 (The concentration shown for each component was the final concentration in the assay). To this mixture was added 5 μl of a compound of Examples 1 to 20 at various concentrations prepared in 50% DMSO (or 5 μl 50% DMSO for controls). This was immediately followed by the addition of 5 μl oleamide (500 μM) dissolved in 75% EtOH/25% DMSO and the reaction mixture was mixed for 1.5 min. The final concentrations of DMSO and EtOH in the assay are each 7.5%. The reactions was then incubated at 30° C. and the absorbance at 340 nm was collected over a period of 90 min with readings taken in 30-second intervals using SpectraMax Plus^384 Microplate Spectrophotometer (Molecular Devices, Sunnyvale, Calif.). Human FAAH used in the assay was prepared as described in the patent application WO 2006/067613. The purity of the enzyme used was greater than 98% based on an analysis by SDS-polyacrylamide gel electrophoresis followed by Coomassie Blue staining.
Initial velocity data (V) is obtained from the slopes of the initial progressive curves. They are plotted as a function of substrate concentration and fit to the Michaelis-Menten equation (1) using Prism (GraphPad Software, Inc., San Diego, Calif.) software to obtain Km and Vmax values.
To obtain potencies of irreversible inhibitors, progressive curves consistent with first order inhibition kinetics (two-step irreversible inhibition mechanism) are fit to equation (2) by nonlinear least squares regressions to determine kobs values at each inhibitor concentration, where [P]t is the absorbance at time t, V0 is a constant related to the steady state rate of the uninhibited reaction, and kobs is the first order rate constant for enzyme inactivation. The inhibitor dissociation constant (Ki) and the first order rate
constant of enzyme inactivation at infinite inhibitor concentration (kinact) are then obtained by fitting the kobs vs. [I] curves to equation (3).

Row | Molecule | hFAAH KInact/K
1 | 4-(3-{[trans-4-(cyanomethyl)cyclohexyl]methoxy}benzylidene)-N-pyridazin-3-ylpiperidine-1-carboxamide [Example 96] | 1470 M⁻¹ s⁻¹
2 | 4-[3-(1-methyl-2-phenoxyethoxy)benzylidene]-N-pyridazin-3-ylpiperidine-1-carboxamide [Example 90] | 3971 M⁻¹ s⁻¹
3 | 4-{3-[2-(3-methoxyphenyl)ethoxy]benzylidene}-N-pyridazin-3-ylpiperidine-1-carboxamide [Example 85] | 7770 M⁻¹ s⁻¹
4 | 4-{3-[(2,4-dimethyl-1,3-thiazol-5-yl)methoxy]benzylidene}-N-pyridazin-3-ylpiperidine-1-carboxamide [Example 69] | 331 M⁻¹ s⁻¹
5 | 4-{3-[(2-methylpyridin-3-yl)methoxy]benzylidene}-N-pyridazin-3-ylpiperidine-1-carboxamide [Example 59] | 328 M⁻¹ s⁻¹
6 | CCOc1cccc(C=C2CCN(C(=O)Nc3cccnc3)CC2)c1 [Example 1, 4-(3-ethoxybenzylidene)-N-pyridin-3-ylpiperidine-1-carboxamide] | 2020 M⁻¹ s⁻¹
7 | COc1cccc(C=C2CCN(C(=O)Nc3cccnc3)CC2)c1 [Example 2, 4-(3-methoxybenzylidene)-N-pyridin-3-ylpiperidine-1-carboxamide] | 973 M⁻¹ s⁻¹
8 | O=C(Nc1cccnn1)N1CCC(=Cc2ccc3c(c2)OCO3)CC1 [Example 3, 4-(1,3-benzodioxol-5-ylmethylene)-N-pyridazin-3-ylpiperidine-1-carboxamide] | 2870 M⁻¹ s⁻¹
9 | O=C(Nc1cccnn1)N1CCC(=Cc2ccc3c(c2)OCCO3)CC1 [Example 4, 4-(2,3-dihydro-1,4-benzodioxin-6-ylmethylene)-N-pyridazin-3-ylpiperidine-1-carboxamide] | 2770 M⁻¹ s⁻¹
10 | O=C(Nc1cccnn1)N1CCC(=Cc2cccc(OC(F)(F)F)c2)CC1 [Example 5, N-pyridazin-3-yl-4-[3-(trifluoromethoxy)benzylidene]piperidine-1-carboxamide] | 2250 M⁻¹ s⁻¹
11 | COc1cccc(C=C2CCN(C(=O)Nc3cccnn3)CC2)c1 [Example 6, 4-(3-methoxybenzylidene)-N-pyridazin-3-ylpiperidine-1-carboxamide] | 1480 M⁻¹ s⁻¹
12 | O=C(Nc1cccnc1)N1CCC(=Cc2cccc(OC3CCCCC3)c2)CC1 [Example 7, 4-[3-(cyclohexyloxy)benzylidene]-N-pyridin-3-ylpiperidine-1-carboxamide] | 1220 M⁻¹ s⁻¹
13 | O=C(Nc1cccnc1)N1CCC(=Cc2cccc(OC3CCC3)c2)CC1 [Example 8, 4-[3-(cyclobutyloxy)benzylidene]-N-pyridin-3-ylpiperidine-1-carboxamide] | 324 M⁻¹ s⁻¹
14 | O=C(Nc1cccnn1)N1CCC(=Cc2cccc(OC3CCC3)c2)CC1 [Example 9, 4-[3-(cyclobutyloxy)benzylidene]-N-pyridazin-3-ylpiperidine-1-carboxamide] | 531 M⁻¹ s⁻¹
15 | O=C(Nc1cccnn1)N1CCC(=Cc2cccc(OC3CCCCC3)c2)CC1 [Example 10, 4-[3-(cyclohexyloxy)benzylidene]-N-pyridazin-3-ylpiperidine-1-carboxamide] | 3300 M⁻¹ s⁻¹
16 | O=C(Nc1cccnc1)N1CCC(=Cc2cccc(OC3CCCC3)c2)CC1 [Example 11, 4-[3-(cyclopentyloxy)benzylidene]-N-pyridin-3-ylpiperidine-1-carboxamide] | 1900 M⁻¹ s⁻¹

Row | Molecule | hFAAH KInact/K
17 | O=C(Nc1cccnc1)N1CCC(=Cc2cccc(OC3CCCOC3)c2)CC1 (centres unmarked) [Example 12, N-pyridin-3-yl-4-[3-(tetrahydro-2H-pyran-3-yloxy)benzylidene]piperidine-1-carboxamide] | 907 M⁻¹ s⁻¹
18 | O=C(Nc1cccnn1)N1CCC(=Cc2cccc(OC3CCCC3)c2)CC1 [Example 13, 4-[3-(cyclopentyloxy)benzylidene]-N-pyridazin-3-ylpiperidine-1-carboxamide] | 2570 M⁻¹ s⁻¹
19 | CCC(CC)Oc1cccc(C=C2CCN(C(=O)Nc3cccnc3)CC2)c1 [Example 14, 4-[3-(1-ethylpropoxy)benzylidene]-N-pyridin-3-ylpiperidine-1-carboxamide] | 718 M⁻¹ s⁻¹
20 | CCC(CC)Oc1cccc(C=C2CCN(C(=O)Nc3cccnc3)CC2)c1 [Example 15, 4-[3-(1-ethylpropoxy)benzylidene]-N-pyridin-3-ylpiperidine-1-carboxamide] | 216 M⁻¹ s⁻¹
21 | O=C(Nc1cccnn1)N1CCC(=Cc2cccc(OC3CCCCCC3)c2)CC1 [Example 16, 4-[3-(cycloheptyloxy)benzylidene]-N-pyridazin-3-ylpiperidine-1-carboxamide] | 2190 M⁻¹ s⁻¹
22 | O=C(Nc1cccnn1)N1CCC(=Cc2cccc(OC3CCOC3)c2)CC1 (centres unmarked) [Example 17, N-pyridazin-3-yl-4-[3-(tetrahydrofuran-3-yloxy)benzylidene]piperidine-1-carboxamide] | 371 M⁻¹ s⁻¹
23 | O=C(Nc1cccnc1)N1CCC(=Cc2cccc(OC3CCCCCC3)c2)CC1 [Example 18, 4-[3-(cycloheptyloxy)benzylidene]-N-pyridin-3-ylpiperidine-1-carboxamide] | 1020 M⁻¹ s⁻¹
24 | O=C(Nc1cccnn1)N1CCC(=Cc2cccc(OC3CCCOC3)c2)CC1 (centres unmarked) [Example 19, N-pyridazin-3-yl-4-[3-(tetrahydro-2H-pyran-3-yloxy)benzylidene]piperidine-1-carboxamide] | 783 M⁻¹ s⁻¹
25 | O=C(Nc1cccnc1)N1CCC(=Cc2cccc(OC3CCOC3)c2)CC1 (centres unmarked) [Example 20, N-pyridin-3-yl-4-[3-(tetrahydrofuran-3-yloxy)benzylidene]piperidine-1-carboxamide] | 451 M⁻¹ s⁻¹
26 | CCC(C)Oc1cccc(C=C2CCN(C(=O)Nc3cccnn3)CC2)c1 (centres unmarked) [Example 21, 4-(3-sec-butoxybenzylidene)-N-pyridazin-3-ylpiperidine-1-carboxamide] | 973 M⁻¹ s⁻¹
27 | CCC(C)Oc1cccc(C=C2CCN(C(=O)Nc3cccnn3)CC2)c1 (centres unmarked) [Example 22, 4-(3-sec-butoxybenzylidene)-N-pyridazin-3-ylpiperidine-1-carboxamide] | 1260 M⁻¹ s⁻¹
28 | CCC(C)Oc1cccc(C=C2CCN(C(=O)Nc3cccnc3)CC2)c1 (centres unmarked) [Example 23, 4-(3-sec-butoxybenzylidene)-N-pyridin-3-ylpiperidine-1-carboxamide] | 555 M⁻¹ s⁻¹
29 | CCC(C)Oc1cccc(C=C2CCN(C(=O)Nc3cccnc3)CC2)c1 (centres unmarked) [Example 24, 4-(3-sec-butoxybenzylidene)-N-pyridin-3-ylpiperidine-1-carboxamide] | 758 M⁻¹ s⁻¹
30 | C=CC(C)Oc1cccc(C=C2CCN(C(=O)Nc3cccnc3)CC2)c1 (centres unmarked) [Example 25, 4-{3-[(1-methylprop-2-en-1-yl)oxy]benzylidene}-N-pyridin-3-ylpiperidine-1-carboxamide] | 939 M⁻¹ s⁻¹
31 | C=CC(C)Oc1cccc(C=C2CCN(C(=O)Nc3cccnn3)CC2)c1 (centres unmarked) [Example 26, 4-{3-[(1-methylprop-2-en-1-yl)oxy]benzylidene}-N-pyridazin-3-ylpiperidine-1-carboxamide] | <10.0 M⁻¹ s⁻¹
32 | CCC(CC)Oc1cccc(C=C2CCN(C(=O)Nc3cccnn3)CC2)c1 [Example 27, 4-[3-(1-ethylpropoxy)benzylidene]-N-pyridazin-3-ylpiperidine-1-carboxamide] | 1030 M⁻¹ s⁻¹
